Measured values as given in publication PMC7845692 (Frontiers in Pharmacology, 2020).
Counter-ions that a name gives are not always drawn. Like-named read-outs stand apart in the source and are kept apart here.

Assays:
in vitro [1] = conditions: human
Human coronavirus OC43 = test: HCoV-OC43 immunofluorescent assay (IFA) against N protein in HCT-8 cells; type: cell-based; conditions: for EC50: read-out: Human coronavirus OC43 EC50 (IFA); for Human coronavirus OC43 Selectivity index: CC50/EC50, HCT-8 cells
[2] = tested on: Feline infectious peritonitis virus; test: anti-FIPV activity, cytopathic effect by visualization in Fcwf-4 cells; conditions: for EC50: Alphacoronavirus 1, read-out: Feline infectious peritonitis virus EC50 CPE/visualization; for Feline infectious peritonitis virus Selectivity index: CC50/EC50, Fcwf-4 cells
Experimental: (§2) The serotype II FIPV Taiwan isolate NTU156 strain, a kind gift from National Taiwan University, was propagated and titrated in Fcwf-4 cells ([Lin et al., 2009]). The EC50 for anti-FIPV activity and CC50 for cell cytotoxicity were determined as previously described ([Yang et al., 2020b]).

in vitro [3] = conditions: cat
Experimental: as §2

HCoV-229E [4] = test: HCoV-229E viral yield, end point dilution assay / TCID50; conditions: MRC-5, MOI 0.05
HCoV-229E [5] = test: HCoV-229E viral RNA (ORF1, ORF N) by semi-RT-qPCR in MRC-5 cells; type: cell-based, Human coronavirus 229E; conditions: MRC-5, MOI 1, 30 h.p.i., 10–300 nM, dose dependent
Experimental: These experiments were performed as described ([Yang et al., 2007b]). Mock or HCoV-229E infected (MOI of 1) lysates were processed and prepared at 30 h.p.i. without or with compound treatment. The total RNA was extracted with TRIzol reagent (Invitrogen). The relative viral RNA expression levels were determined by semi-RT-qPCR, analyzed with the ImageJ Analyzer program (http://imagej.nih.gov/ij/index.html), and normalized with the housekeeping gene GAPDH. The primers used to amplify the PCR products were 5′-GGCGAGGTGGAATTTGTTTA-3′ and 5′-ACCTTTAAGCCACCATGTGC-3′ for ORF1; 5′-TCTGCCAAGAGTCTTGCTCG-3′ and 5′-AGCATAGCAGCTGTTGACGG-3′ for ORF N. The amplification of target cDNA was conducted under the following conditions: 25 cycles of 95°C for 30 s, 55°C for 20 s, and 72°C for 30 s for ORF N; 29 cycles of 95°C for 30 s, 55°C for 20 s, and 72°C for 30 s for ORF1, and 35 cycles of 95°C for 30 s, 55°C for 20 s, and 72°C for 30 s for GAPDH. The final PCR products were subjected to electrophoresis on 2% agarose gel containing ethidium bromide along with DNA markers.

Human coronavirus 229E = test: HCoV-229E cytopathic effect, crystal violet absorbance in MRC-5 cells; conditions: CC50/EC50, MRC-5 cells
in vitro [6] = conditions: human, MRC-5 cells
SARS-CoV-2 [7] = test: microbe, parasite or virus in culture; type: cell-based
SARS-CoV-2 [8] = test: SARS-CoV-2 IFA against N protein in Vero E6 cells; type: cell-based
Experimental: (§1) CPE was performed as described ([Wu et al., 2004]). For IFA, Vero E6 cells (BCRC number: 60476; derived from ATCC CRL-1586) were treated with each compound at the indicated concentration for 1 h at 37°C. The cells were adsorbed with SARS-CoV-2 (TCDC#4) (sequence available on the GISAID website) at an MOI = 0.01 for 1 h at 37°C. After virus adsorption, the cells were washed with PBS and fresh medium containing each compound at the indicated concentration was added. After 2 days, cells were fixed with 4% paraformaldehyde and permeabilized with 0.5% Triton X-100. The cells were stained with anti-SARS-CoV-2 N protein antibody, provided by Dr. An-Suei Yang of the Genomics Research Center, Academia Sinica, and goat anti-human IgG-Alexa Fluor 488 (A11013, Invitrogen) (in green). The nuclei were counter stained with DAPI (in blue) (D1306, Invitrogen). The N protein expression was measured using a high-content image analysis system (Molecular Devices). The cell viability was determined by Cell Counting Kit-8 (CCK-8) (Sigma-Aldrich, cat #96992). EC50 and CC50 values were calculated by Prism software.

HCoV-OC43 = HCoV-OC43 viral yield, end point dilution assay / TCID50; type: cell-based, Human coronavirus OC43
SARS-CoV-2 [9] = test: SARS-CoV-2 cytopathic effect by visualization in Vero E6 cells; type: cell-based
Experimental: as §1

[10] = Vero E6 cell viability (CCK-8); type: cell-based; conditions: African green monkey, Vero E6 cells; read-out: SARS-CoV-2 CC50 CCK-8
Experimental: as §1

[11] = cell cytotoxicity by visualization (FIPV host cells); conditions: cat
Experimental: as §2

[12] = Vero E6 cytotoxicity by visualization; type: cell-based; conditions: African green monkey, Vero E6 cells; read-out: SARS-CoV-2 CC50 Visualization
Experimental: as §1

[13] = HCT-8 cell viability (MTS); conditions: human, HCT-8 cells
[14] = Betacoronavirus 1, OC43, HCT-8, 72 h

SMILES: C[C@H]1O[C@@H](O[C@H]2[C@@H](O)C[C@H](O[C@H]3[C@@H](O)C[C@H](O[C@H]4CC[C@@]5(C)[C@H](CC[C@@H]6[C@@H]5CC[C@]5(C)[C@@H](C7=CC(=O)OC7)CC[C@]65O)C4)O[C@@H]3C)O[C@@H]2C)C[C@H](O)[C@@H]1O [Digitoxin, digitoxin]
- CC50 (in vitro [1]): 909 ± 123 nM
- EC50 (Human coronavirus OC43; Betacoronavirus 1, OC43, HCT-8 cells, MOI 0.05, 72 h.p.i., means ± SD): 88 ± 16 nM
- Human coronavirus OC43 Selectivity index (Human coronavirus OC43): 10.3
- EC50 [2]: 97 ± 6 nM
- Feline infectious peritonitis virus Selectivity index [2]: 8.5
- CC50 (in vitro [3]): 825 ± 195 nM

SMILES: C[C@]12CCC(=NOCCN)C[C@@H]1C(=O)C[C@@H]1[C@@H]2CC[C@]2(C)C(=O)CC[C@@H]12 [Istaroxime, istaroxime hydrochloride]
- CC50 at 72 h (in vitro [1]): 32000 nM
- EC50 (Human coronavirus OC43; [14]): 5420 ± 268 nM
- Human coronavirus OC43 Selectivity index (Human coronavirus OC43): 5.9
- EC50 [2]: 2160 nM
- Feline infectious peritonitis virus Selectivity index [2]: 3.3
- CC50 (in vitro [3]): 7120 ± 750 nM

SMILES: CCN1Cc2c(c3ccc(OC)cc3c3cc(OC)c(OC)cc23)C(O)C1 (stereo not shown) [dbq33b]
- complete reduction of HCoV-229E viral yield (HCoV-229E [4]; at 100, 300 and 600 nM respectively (dbq33b, dbq33b4p7, PI09)): 6–7 log of magnitudes
- concentration giving complete reduction of HCoV-229E viral yield (HCoV-229E [4]; reduction 6–7 log): 100 nM
- effect on HCoV-229E viral genome replication and subgenomic viral RNA syntheses (RT-PCR ORF1, ORF N) (HCoV-229E [5]): inhibited HCoV-229E viral genome replication and subgenomic viral RNA syntheses
- Human coronavirus 229E Selectivity index (Human coronavirus 229E): 264
- CC50 (in vitro [6]): 1710 nM
- EC50 (Human coronavirus OC43; [14]): 16 ± 5 nM
- Human coronavirus OC43 Selectivity index (Human coronavirus OC43): >610
- EC50 (SARS-CoV-2 [7]; Severe acute respiratory syndrome coronavirus 2, Vero C1008, read-out: SARS-CoV-2 plaque assay EC50, Vero E6 cells): 14 nM
- EC50 (SARS-CoV-2 [7]; Severe acute respiratory syndrome coronavirus 2, Vero C1008, read-out: SARS-CoV-2 plaque assay EC50, Vero E6 cells, 5–7 days, Figure 5B-b): 13.8 ± 0.3 nM
- SARS-CoV-2 Selectivity index (IFA/CCK-8) (SARS-CoV-2 [8]; CC50/EC50, Vero E6 cells): 367
- EC50 (SARS-CoV-2 [8]; Severe acute respiratory syndrome coronavirus 2, Vero C1008, 48 h, read-out: SARS-CoV-2 EC50 IFA, Vero E6 cells, MOI 0.01, 2 d.p.i., N protein): 14 nM
- EC50 (SARS-CoV-2 [8]; Vero E6 cells, MOI 0.01, 2 d.p.i., N protein, read-out: SARS-CoV-2 EC50 IFA): 13.9 nM
- complete reduction of HCoV-OC43 viral yield (HCoV-OC43; HCT-8, MOI 0.05, supernatant 72 h.p.i., at 30, 100 and 300 nM respectively (dbq33b, dbq33b4p7, PI09)): 7–8 log of magnitudes
- concentration accomplishing complete reduction of HCoV-OC43 viral yield (HCoV-OC43; HCT-8, MOI 0.05, reduction ∼7–8 log): 30 nM
- EC50 [2]: 8 ± 2 nM
- Feline infectious peritonitis virus Selectivity index [2]: 390.6
- SARS-CoV-2 Selectivity index (CPE/visualization) (SARS-CoV-2 [9]; CC50/EC50, Vero E6 cells): 500
- EC50 (SARS-CoV-2 [9]; Severe acute respiratory syndrome coronavirus 2, Vero C1008, Vero E6 cells, means from duplicate, read-out: SARS-CoV-2 EC50 CPE/visualization): 2.5 nM
- CC50 [10]: 5100 nM
- CC50 [11]: 3120 nM
- CC50 [12]: 1250 nM
- CC50 at 72 h [13]: > 10000 nM
